In patent EP4545542A1, “TRANSITION METAL CLUSTER COMPOUNDS FOR ELECTROCHEMICAL APPLICATIONS” (Litricity GmbH, priority 2023, dated 2025):

Test: Solubility by the shake-flask method
Conditions: Table 2: Solubility test of Fe28 clusters (acid linkers; Fe28+Tartaric acid with Ba, Ca, Mg counterions); conditions not given separately
Description: Solubility was determined by the shake-flask method (table 1) at room temperature (25 °C, pH = 5.7 in 0.3 M of Na2SO4).
With “Ba10[Fe28(µ3-O)8(tart)16(OAc)24] ×H2O [Ba10Fe28]” the Solubility was 84 mM.
Work on “Ca10[Fe28(µ3-O)8(tart)16(OAc)24] ×H2O [Ca10Fe28]” yielded a Solubility of 2 mM.
Substance “Mq10[Fe28(µ3-O)8(tart)16(OAc)24] ×H2O [Mg10Fe28]” has a Solubility of 1 mM.

Same assay, conditions: shake-flask method, room temperature (25 °C, pH = 5.7 in 0.3 M of Na2SO4); Table 1, influence of the cation
For “K2Li18[Fe28(µ3-O)8(tart)16(OAc)24] ×H2O [Cluster K2Li28Fe28]”, the Solubility was 88 mM.
With “K20[Fe28(µ3-O)8(tart)16(OAc)24] ×H2O [Cluster K20Fe28]” the Solubility was 50 mM.
“Li2K18[Fe28(µ3-O)8(tart)16(OAc)24] ×H2O [Li2K18Fe28]” showed a Solubility of 48 mM.
Substance “Li2Na18[Fe28(µ3-O)8(tart)16(OAc)24] ×H2O [Li2Na18Fe28]” has a Solubility of 83 mM.
With “Na20[Fe28(µ3-O)8(tart)16(OAc)24] ×H2O [Na20Fe28]” the Solubility was 70 mM.
